In patent publication US6472418B1, “Non-peptide NK1 receptors antagonists” (Warner-Lambert Company, priority 1998, dated 2002):

Tests used:
Human NK1 Receptor = molecular target: T1, Human NK1 Receptor (Homo sapiens, UniProt P25103); test: In Vitro Human NK1 Receptor Binding Assay ([125I]Bolton-Hunter substance P displacement, IM9 cells); details: Human lymphoma IM9 cells, [125I]Bolton-Hunter substance P (0.05-0.1 nM), 50 min at 21° C.; Table 1; read-out: NK1 binding IC50
T1 construct: endogenous in cells; host or cells: Human lymphoma IM9 cells (whole cells)
How it was run: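 Radioligand displacement on whole IM9 human lymphoma cells (2.5×10^6 cells/mL) using [125I]Bolton-Hunter substance P (0.05-0.1 nM), 50 min at 21° C in Tris pH 7.4/MnCl2 buffer with protease inhibitors. Non-specific binding defined by […] [Sar9, Met(O2)11] substance P. Filtration, gamma counting, iterative curve fitting.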

T1 sequence (P25103 whole entry): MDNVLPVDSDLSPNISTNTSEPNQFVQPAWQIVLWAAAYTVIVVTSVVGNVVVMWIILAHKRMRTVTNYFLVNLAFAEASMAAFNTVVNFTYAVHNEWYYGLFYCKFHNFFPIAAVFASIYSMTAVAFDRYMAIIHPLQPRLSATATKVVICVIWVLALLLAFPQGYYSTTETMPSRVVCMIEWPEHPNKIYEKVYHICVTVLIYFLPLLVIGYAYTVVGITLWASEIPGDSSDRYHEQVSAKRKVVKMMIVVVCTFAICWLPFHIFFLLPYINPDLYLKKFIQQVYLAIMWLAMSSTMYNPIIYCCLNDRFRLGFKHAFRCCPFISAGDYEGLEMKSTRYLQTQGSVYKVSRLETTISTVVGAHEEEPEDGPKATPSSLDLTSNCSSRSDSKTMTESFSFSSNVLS

| IC50 (Human NK1 Receptor) [µM] | melting point [°C] | SMILES |
| --- | --- | --- |
| 1.21 | 130 to 134 | CN(C)C[C@H](NC(=O)[C@@](C)(Cc1c[nH]c2ccccc12)NCc1cc2ccccc2o1)c1ccccc1 [Example 4, 2-[(Benzofuran-2-ylmethyl)-amino]-N-(2-dimethylamino-1-phenyl-ethyl)-3-(1H-indol-3-yl)-2-methyl-propionamide, (R,R)] |
| 0.295 | 60 to 69 | C[C@](Cc1c[nH]c2ccccc12)(NCc1cc2ccccc2o1)C(=O)NCc1cccc(O)c1 [Example 5, 2-[(Benzofuran-2-ylmethyl)-amino]-N-(3-hydroxy-benzyl)-3-(1H-indol-3-yl)-2-methyl-propionamide, R] |
| 0.051 | 102 to 108 | C[C@H](NC(=O)[C@@H](Cc1c[nH]c2ccccc12)NCc1cc2ccccc2s1)c1ccccc1 [Example 10, 2-[(Benzo[b]thiophen-2-ylmethyl)-amino]-3-(1H-indol-3-yl)-N-(1-phenyl-ethyl)-propionamide] |
